Data taken from PMC10762078, “Role of UPF1-LIN28A interaction during early differentiation of pluripotent stem cells” (Nature Communications, 2024).
Ends that are not written are not given here.

Key:
[1] = system: UPF1-LIN28A interaction; assay: Proximity ligation assay (PLA) of UPF1-LIN28A complexes; format: cell-based; conditions: LIN28A-overexpressing HeLa and CHA15 cells, n = 3
Experimental: The in situ proximity ligation assay (PLA) was performed on fixed and permeabilised cells using Duolink In Situ Red kit mouse/rabbit (Sigma-Aldrich, DUO92101), according to the manufacturer’s protocol. Briefly, fixed and permeabilised cells were incubated with a blocking solution for 1 h at 37 °C and then incubated with the following primary antibodies: anti-UPF1 (Cell Signaling Technology, 12040; 1:200) and LIN28A (Cell Signaling Technology, 5930; 1:200) overnight at 4 °C. After incubation, the coverslips were washed twice with 1× buffer A, followed by incubation with PLA probes for 1 h at 37 °C. After washing twice with 1× buffer A for 5 min, the coverslip was incubated with the ligation solution for 30 min at 37 °C. Coverslips were washed twice with 1× buffer A, followed by an amplification step with polymerase for 100 min at 37 °C. Finally, the coverslip was washed twice with 1× buffer B and once with 0.01× buffer B and then mounted in […] with DAPI mounting medium (Vector Laboratories, H1200).
Immunofluorescence staining, proximity ligation assay imaging, and cell-penetrating efficiency of CPP-FITC were imaged with a confocal laser scanning microscope (Leica, TSC SP5) or immunofluorescence microscope (Leica, DM5000B). Z-stacks were captured, with sections spanning the entire cell. […]

[2] = system: CHA15 cells transcriptome / NMD targets; assay: RNA-seq of CPP-P8/CPP-P1-treated CHA15 cells with siControl or siLIN28A (Supplementary Fig. 6e); format: cell-based, Homo sapiens
Experimental: (§1) For CPP-conjugated peptide delivery, HeLa, 293T, and PA-1 cells were incubated with CPP-conjugated peptides or CPP-FITC at 2 μM in DMEM with 10% FBS for 12 h a day before cell harvest. hPSCs were treated with CPP-conjugated peptides at 10 μM in mTeSR Plus Medium, and the peptide-containing medium was changed every day over 10 days. The ROCK inhibitor (Tocris Bioscience, Y-27632) treated-hPSCs were dissociated into single cells using Accutase (Merck, SCR005) and differentiated into ectoderm, mesoderm, and endoderm using the STEMdiff Trilineage Differentiation Kit ([…] Technologies, 05230) following the manufacturer’s protocol. Differentiated cells treated with CPP-conjugated peptides were analysed at 0, 3, and 5 days for ectoderm and endoderm, and at 0, 3, and 4 days for mesoderm.
Total RNA concentration was calculated using Quant-IT RiboGreen (Invitrogen, R11490). To assess the integrity of the total RNA, samples were run on a TapeStation RNA screentape (Agilent). Only high-quality RNA preparations with RNA integrity number greater than 7.0 were used for the RNA library construction. A library was independently prepared with 1 μg of total RNA from each sample using the Illumina TruSeq Stranded mRNA Sample Prep Kit (Illumina, 20020594). The first step in the workflow involves purifying poly‐A-containing mRNA molecules using poly‐T‐attached magnetic beads. Following purification, mRNA was fragmented into small pieces using divalent cations at elevated temperatures. The cleaved RNA fragments were copied into first-strand cDNA using SuperScript II reverse transcriptase (Invitrogen, 18064022) and random primers. This was followed by second-strand cDNA synthesis using DNA polymerase I, RNase H, and dUTP. These cDNA fragments underwent an end repair process, adding a single ‘A’ base and ligating the adapters. The products were purified and enriched via PCR to create the final cDNA library. The libraries were quantified using the KAPA Library Quantification Kits for Illumina Sequencing platforms according to the qPCR Quantification Protocol Guide (KAPA BIOSYSTEMS, KR0405) and qualified using the TapeStation D1000 ScreenTape (Agilent). Indexed libraries were then submitted to an Illumina NovaSeq (Illumina), and Macrogen Inc. performed paired-end (2 × 100 bp) sequencing.
We pre-processed the raw reads from the sequencer to remove low-quality reads and adapter sequences before analysis and aligned the processed reads to Homo sapiens (GRCh37) using HISAT v2.1.0[52]. HISAT utilises two indices for alignment (a global whole-genome index and tens of thousands of small local indexes). These two types of indices are constructed using the same Burrows-Wheeler transform (BWT)/graph FM index (GFM) as Bowtie2. The reference genome sequence of Homo sapiens (GRCh37) and the annotation data were downloaded from the NCBI database. Transcript assembly was processed using StringTie v1.3.4d[53],[54]. […] Differentially expressed genes (DEGs) were analysed by ratio of FPKM or using DESeq2 with read counts. Log2 fold-change value of the NMD targets[25],[32], three germ layer markers, miRNA targets, or SDGs was converted into cumulative frequency curve using the R function, ‘ecdf’ (version 4.0.5). Gene functional classification and Gene ontology (GO) were performed using g:Profiler[56]. […]
Scale bars, 100 μm . d (Corresponding to Fig. 6d) RT -qPCR was perform ed to evaluate the level of indicated transcripts upon the indicated peptide treatm ent in CHA15 cells. e T ranscriptom e analysis was perf orm ed using signif icantly changed transcripts (p < 0.05) f rom siLIN28A or siControl in the indicated CPP-peptide treated CHA15 cells. Scatter […]
(bottom panel), respectively. f Levels of m ature endogenous m iRNAs in CHA15 cells, which were regulated by LIN28A, were assessed using RT -qPCR. Cum ulative f raction of log2 fold change in the expression of genes regulated by let-7-5p and m iR-16- 5p was shown as CDF graphs. […]

[3] = system: CHA15 cells; assay: Flow cytometry of SOX1, DLK1 and LHX2 during ectodermal differentiation (Fig. 7b, Supplementary Fig. 7f); format: cell-based, human; parameters: unit not given here; conditions: for DLK1 FACS, mean / LHX2 FACS, mean / SOX1 FACS, mean: mean from t test output, scale differs from set1-set3 values
Experimental: as §1
To evaluate the relative cell number expressing the indicated proteins, CHA15 cells with the indicated CPP-conjugated peptide were fixed with BD Cytofix Fixation Buffer (BD Biosciences Pharmingen, 554655) followed by permeabilization with 0.1% BSA/PBS solution supplemented with 10% NGS and 0.3% Triton X-100 for 1 h at 4 °C. After washing, cells were incubated with the primary antibodies (OCT4 1:1000, NANOG 1:1000, DLK1 1:1000, SOX2 1:1000, LHX2 1:1000) and then, secondary antibody, Alexa Fluor 488 (1:1000), was applied. The positive cells were determined using flow cytometry (FACSCanto, BD Pharmingen), and data was analysed using the Flow Jo-v10 software program.

[4] = CHA15, absence of LIN28A (siRNA)
[5] = vs. P1, ± SEM, unpaired t test, df=4

| Substance | PLA signal of UPF1-LIN28A complexes [1] | fraction deregulated in a LIN28A-independent manner ([2]; 7 (6+1) out of 95 (42+53)) [%] | transcripts downregulated over 2-fold [2, 4] [transcripts] | transcripts upregulated over 2-fold [2, 4] | transcripts downregulated over 2-fold ([2]; CHA15, presence of LIN28A) [transcripts] | transcripts upregulated over 2-fold ([2]; CHA15, presence of LIN28A) [transcripts] | FEZF1-AS1 expression ([2]; CHA15, siControl) [FPKM] | LHX5-AS1 expression ([2]; CHA15, siControl) [FPKM] | LMO1 expression ([2]; CHA15, siControl) [FPKM] | CUZD1 expression ([2]; CHA15, siLIN28A) [FPKM] | CXCL5 expression ([2]; CHA15, siLIN28A) [FPKM] | MT2A expression ([2]; CHA15, siLIN28A) [FPKM] | transcriptome change in absence of LIN28A ([2]; hESCs, siLIN28A) | DLK1 FACS, mean [3] | LHX2 FACS, mean [3] | SOX1 FACS, mean [3] | DLK1 FACS, difference between means ± SEM [3, 5] | LHX2 FACS, difference between means ± SEM [3, 5] | SOX1 FACS, difference between means ± SEM [3, 5] |
| --- | --- | --- | --- | --- | --- | --- | --- | --- | --- | --- | --- | --- | --- | --- | --- | --- | --- | --- | --- |
| KKKWCRKKKSSADEKRYRALKRTAERELLMNA [CPP-P8, CPP conjugated to P8] | weaker signals than CPP-P1 or -P2 | 7.4 | 2 | 12 | 53 | 42 | 20.4087 | 61.4319 | 15.1171 | 5.545 | 5.9 | 11.8304 | less impact on the transcriptome change, including NMD targets, in the absence of LIN28A | – | – | – | – | – | – |
| KKKWCRKKKSSADEKRYRALKRTAERELLMNA [P8] | – | – | – | – | – | – | – | – | – | – | – | – | – | 8315 | 9545 | 5506 | 1682 ± 236.3 | 3433 ± 333.3 | -2997 ± 246.0 |
| N-QKLDQKELQLEPM-C [P1, reference compound] | – | – | – | – | – | – | – | – | – | – | – | – | – | 6634 | 6112 | 8503 | – | – | – |
